Results as given in patent publication US20260053861A1, “CELL COMPOSITIONS AND METHODS OF USING THE SAME” (THE REGENTS OF THE UNIVERSITY OF CALIFORNIA, priority 2022, published 2026).
Where a name gives a salt, the structure may show the parent alone. Read-outs that look alike come from different tables or passages of the source. Residues, ends and D or L forms follow the SMILES beside them.

Test system: hPSC-SCs
[1] = HTS viability of hPSC-SCs in the presence of 30 mM glucose, Prestwick library, Table S4

Row | Molecule | z.score.t | z.score.t [1]
1 | Butirosin disulfate salt | −0.5169 | –
2 | CCOC(=O)C1=C[C@]2(CC)CCCN3CCc4c(n1c1ccccc41)[C@@H]32 [Vinpocetine] | – | 0.6517
3 | CNCC(O)c1ccc(O)cc1 (racemic) [(+, −)-Synephrine] | −0.2329 | –
4 | COc1ccc2c(c1OC)C(=O)O[C@@H]2[C@H]1c2cc3c(cc2CCN1C)OCO3 [Hydrastine hydrochloride] | −0.4139 | –
5 | Cl.N=C(N=C(N)N)N1CCOCC1 [Moroxidine hydrochloride] | – | 1.464
6 | NC[C@H]1O[C@H](O[C@H]2[C@H](O)[C@@H](O[C@H]3O[C@H](CO)[C@@H](O)[C@H](N)[C@H]3O)[C@H](N)C[C@@H]2N)[C@H](O)[C@@H](O)[C@@H]1O.O=S(=O)(O)O [Kanamycin A sulfate] | – | 0.07052
7 | COc1ccc2c(c1)N(C[C@H](C)CN(C)C)c1ccccc1S2.O=C(O)/C=C\C(=O)O [Methotrimeprazine maleat salt] | – | −1.008
8 | Cc1c(Nc2ncccc2C(=O)O)cccc1C(F)(F)F [Flunixin meglumine] | – | 1.117
9 | CS(=O)(=O)c1ccc([C@@H](O)[C@@H](CO)NC(=O)C(Cl)Cl)cc1 [Thiamphenicol] | – | 1.099
10 | Isoetharine mesylate salt | 0.5976 | –
11 | Cc1ccccc1OCC(O)CO (centres unmarked) [Mephenesin] | – | −1.753
12 | CCCCCCCCNC(C)C(O)c1ccc(SC(C)C)cc1 (centres unmarked) [Suloctidil] | – | −0.649
13 | CCCCNc1ccc(C(=O)OCCOCCOCCOCCOCCOCCOCCOCCOCCOC)cc1 [Benzonatate] | – | 0.6386
14 | CC1(C)O[C@@H]2C[C@H]3[C@@H]4C[C@H](F)C5=CC(=O)CC[C@]5(C)[C@H]4[C@@H](O)C[C@]3(C)[C@]2(C(=O)CO)O1 [Flurandrenolide] | – | 0.4741
15 | CC[C@@]1(O)C(=O)OCc2c1cc1n(c2=O)Cc2cc3ccccc3nc2-1 [Camptothecine (S, +)] | – | −1.163
16 | Cc1c(OCC(F)(F)F)ccnc1C[S+]([O-])c1nc2ccccc2[nH]1 (centres unmarked) [Lansoprazole] | – | 1.808
17 | CNCCC(Oc1ccc(C(F)(F)F)cc1)c1ccccc1 (centres unmarked) [Fluoxetine hydrochloride] | – | −0.865
18 | COc1ccc2c(c1)c(CC(=O)OCC(=O)O)c(C)n2C(=O)c1ccc(Cl)cc1 [Acemetacin] | – | −1.873
19 | C=C1CC[C@H](O)C/C1=C/C=C1\CCC[C@]2(C)[C@@H]([C@H](C)/C=C/[C@H](C)C(C)C)CC[C@@H]12 [Calciferol] | – | 0.4451
20 | CCOC(=O)O[C@]1(C(=O)COC(=O)CC)CC[C@H]2[C@@H]3CCC4=CC(=O)C=C[C@]4(C)[C@H]3[C@@H](O)C[C@@]21C [Prednicarbate] | – | −0.7266
21 | C[C@]12C=CC(=O)C=C1CC[C@H]1[C@@H]3C[C@@H](O)[C@](O)(C(=O)CO)[C@@]3(C)C[C@H](O)[C@@]12F [Triamcinolone] | – | 2.024
22 | NNCCc1ccccc1 [Phenelzine sulfate] | – | 0.852
23 | C=C(C)[C@@H]1CC[C@]2(C(=O)O)CC[C@]3(C)[C@H](CC[C@@H]4[C@@]5(C)CC[C@H](O)C(C)(C)[C@@H]5CC[C@]43C)[C@@H]12 [Betulinic acid] | – | −1.832
24 | CC[C@@H]1C(=O)OC[C@@H]1Cc1cncn1C [Pilocarpine nitrate] | – | 1.139

Row | Molecule | z.score.t | z.score.t [1]
25 | CC(O)(P(=O)(O)O)P(=O)(O)O [Etidronic acid, disodium salt] | – | −0.8317
26 | CN(C)CCOC(=O)COc1ccc(Cl)cc1 [Meclofenoxate hydrochloride] | −2.264 | –
27 | CC[N+](C)(CC)CCC[n+]1c(-c2ccccc2)c2cc(N)ccc2c2ccc(N)cc21.[I-].[I-] [Propidium iodide] | – | −0.7567
28 | COc1ccc(C(Cl)=C(c2ccc(OC)cc2)c2ccc(OC)cc2)cc1 [Chlorotrianisene] | – | −0.5169
29 | C[C@]12CC[C@@H]3c4ccc(O)cc4CC[C@H]3[C@@H]1C[C@@H](O)[C@@H]2O [Estriol] | – | 0.7296
30 | COc1ccc2[nH]cc(CCNC(C)=O)c2c1 [Melatonin] | – | 0.006455
31 | CC(=O)Nc1c(I)c(C(=O)N[C@H]2C(O)O[C@H](CO)[C@@H](O)[C@@H]2O)c(I)c(N(C)C(C)=O)c1I (some centres unmarked) [Metrizamide] | – | 1.421
32 | NC(Cn1ccc(=O)c(O)c1)C(=O)O (centres unmarked) [Mimosine] | – | 0.7491
33 | OC(c1cc(C(F)(F)F)nc2c(C(F)(F)F)cccc12)C1CCCCN1 (centres unmarked) [Mefloquine hydrochloride] | – | −1.637
34 | CCCCc1cc2ccccc2c(OCCN(C)C)n1 [Dimethisoquin hydrochloride] | – | 0.04918
35 | CC1(C)S[C@@H]2[C@H](NC(=O)[C@H](NC(=O)N3CCNC3=O)c3ccccc3)C(=O)N2[C@H]1C(=O)O [Azlocillin sodium salt] | – | 1.635
36 | CS(=N)(=O)CC[C@H](N)C(=O)O (some centres unmarked) [Methionine sulfoximine (L)] | – | 1.124
37 | COc1ccc(CC2c3cc(OC)c(OC)cc3CCN2C)cc1OC (racemic) [Laudanosine (R,S)] | −0.3319 | –
38 | Cn1c(=O)c2[nH]cnc2n(C)c1=O [Aminophylline] | – | 1.208
39 | C#CCN(C)[C@H](C)Cc1ccccc1 [Selegiline hydrochloride] | −0.9978 | –
40 | C#C[C@]1(O)CC[C@H]2[C@@H]3CCC4=CC(=O)CC[C@]4(C)[C@H]3CC[C@@]21C [Ethisterone] | 0.2916 | –
41 | O=C(N/N=C/c1ccc([N+](=O)[O-])o1)c1ccc(O)cc1 [Nifuroxazide] | – | 0.8023
42 | CCCSc1ccc2nc(NC(=O)OC)[nH]c2c1 [Albendazole] | −1.079 | –
43 | O=C1OC(CN2CCOCC2)CN1/N=C/c1ccc([N+](=O)[O-])o1 (centres unmarked) [Furaltadone hydrochloride] | – | 2.34
44 | Nc1ccc(S(=O)(=O)Nc2ccnn2-c2ccccc2)cc1 [Sulfaphenazole] | – | 0.4626
45 | CC(N)C(O)c1ccccc1 (centres unmarked) [Phenylpropanolamine hydrochloride] | −0.8304 | –
46 | CO[C@@]1(NC(=O)C2SC(=C(C(N)=O)C(=O)O)S2)C(=O)N2C(C(=O)O)=C(CSc3nnnn3C)CS[C@@H]21 (some centres unmarked) [Cefotetan] | – | −0.4942
47 | c1ccc2[nH]c(-c3cscn3)nc2c1 [Tiabendazole] | – | 1.638
48 | O=C1C(O)=C([C@H]2CC[C@H](c3ccc(Cl)cc3)CC2)C(=O)c2ccccc21 [Atovaquone] | – | −1.62

Row | Molecule | z.score.t | z.score.t [1]
49 | NC[C@H]1CC[C@H](C(=O)O)CC1 [Tranexamic acid] | – | 1.088
50 | COc1cc(C(=O)OCCCN2CCCN(CCCOC(=O)c3cc(OC)c(OC)c(OC)c3)CC2)cc(OC)c1OC [Dilazep dihydrochloride] | – | −1.444
51 | Cc1ccc(C)c(OCCCC(C)(C)C(=O)O)c1 [Gemfibrozil] | – | 0.4486
52 | C=C1C/C(=C/C)C(=O)O[C@@H]2CCN3CC=C(COC(=O)[C@]1(C)O)[C@H]23 [Seneciphylline] | 0.767 | –
53 | COc1ccccc1OCC(O)CN1CCN(CC(=O)Nc2c(C)cccc2C)CC1 (centres unmarked) [Ranolazine] | – | 1.442
54 | CCOC(=O)NNc1nncc2ccccc12 [Todralazine hydrochloride] | – | −0.4444
55 | CCCC(=O)Nc1ccc(OCC(O)CNC(C)C)c(C(C)=O)c1 (centres unmarked) [Acebutolol hydrochloride] | – | 0.3206
56 | COc1cc2cc3c4cc(OC)c(OC)cc4cc[n+]3c(C)c2cc1OC.O.[Cl-] [Coralyne chloride hydrate] | −1.014 | –
57 | C=CC[N@@+]12CC[C@@]34c5ccccc5N5/C=C6/[C@H]7C[C@H]8[C@@]9(CC[N@@+]8(CC=C)C/C7=C/CO)c7ccccc7N(/C=C(/[C@@H](C[C@@H]31)/C(=C\CO)C2)[C@H]54)[C@@H]69.[Cl-].[Cl-] [Alcuronium chloride] | −0.8925 | –
58 | COc1ccc2c(OC)c3ccoc3nc2c1OC [Skimmianine] | – | −0.7376
59 | CN(C)CCN(Cc1ccc(Cl)cc1)c1ccccn1 [Chloropyramine hydrochloride] | – | −0.5169
60 | CNc1ncnc2c1ncn2[C@@H]1O[C@H](CO)[C@@H](O)[C@H]1O [N6-methyladenosine] | – | 1.002
61 | Solanine alpha | −0.2486 | –
62 | CC[C@H](C)[C@H](N)C1=N[C@H](C(=O)N[C@@H](CC(C)C)C(=O)N[C@H](CCC(=O)O)C(=O)N[C@H](C(=O)N[C@H]2CCCCNC(=O)[C@H](CC(N)=O)NC(=O)[C@@H](CC(=O)O)NC(=O)[C@H](Cc3cnc[nH]3)NC(=O)[C@@H](Cc3ccccc3)NC(=O)[C@H]([C@@H](C)CC)NC(=O)[C@@H](CCCN)NC2=O)[C@@H](C)CC)CS1 [Bacitracin] (HELM PEPTIDE1{[CC[C@H](C)[C@H](N)C1=N[C@H](C(=O)[*:2])CS1].L.[dE].I.K.[NCCC[C@@H](N[*:1])C(=O)[*:2]].I.[dF].H.[dD].N}$PEPTIDE1,PEPTIDE1,5:R3-11:R2$$$V2.0) | – | 1.163
63 | CC[C@@]1([C@@H]2O[C@@H]([C@H]3O[C@@](O)(CO)[C@H](C)C[C@@H]3C)C[C@@H]2C)CC[C@H]([C@]2(C)CC[C@]3(C[C@H](O)[C@@H](C)[C@@H]([C@@H](C)[C@@H](OC)[C@H](C)C(=O)O)O3)O2)O1 [Monensin sodium salt] | – | −2.299
64 | O=C(NCC(O)CO)c1c(I)c(C(=O)NCC(O)CO)c(I)c(N(CCO)C(=O)CO)c1I (centres unmarked) [Ioversol] | – | −0.5789
65 | O=C1O[C@H]([C@@H](O)CO)C(O)=C1O [Ascorbic acid] | – | −0.7233
66 | CC(=O)[N-]S(=O)(=O)c1ccc(N)cc1.O.[Na+] [Sulfacetamide sodic hydrate] | – | −0.2865
67 | CC(=O)NC1CCSC1=O (racemic) [N-Acetyl-DL-homocysteine Thiolactone] | 0.0116 | –
68 | Nc1nc(O)c2[nH]nnc2n1 [Azaguanine-8] | – | −1.365
69 | COc1cccc2c1C(=O)c1c(O)c3c(c(O)c1C2=O)C[C@@](O)(C(C)=O)C[C@@H]3O[C@H]1C[C@H](N)[C@H](O)[C@H](C)O1 [Daunorubicin hydrochloride] | −1.999 | –
70 | CN1CCc2c(c3ccccc3n2Cc2ccccc2)C1.O=S(=O)(O)c1cccc2c(S(=O)(=O)O)cccc12 [Mebhydroline 1,5-naphtalenedisulfonate] | – | 0.7312
71 | C=N[C@@H](C(=O)N[C@@H]1C(=O)N2[C@@H]1SC(C)(C)[C@@H]2C(=O)O)c1ccccc1 [Metampicillin sodium salt] | – | −1.069
